Read-outs that look alike come from different tables or passages of the source.
How the values were obtained:
[1] = target: T1, L-glutaminase present in mice brain homogenate (Glutaminase(Brain)) (Mus musculus, UniProt D3Z7P3); assay: Glutaminase enzyme activity using glutaminase enzyme from mice brain/kidney homogenate (Nessler's reagent, ammonia); format: biochemical; details: for inhibition at 0.1 µM: read-out: Glutaminase(Brain) activity % inhibition 0.1 μM; for inhibition at 1 µM: read-out: Glutaminase(Brain) activity % inhibition @1 μM
T1 sequence (D3Z7P3 55-674): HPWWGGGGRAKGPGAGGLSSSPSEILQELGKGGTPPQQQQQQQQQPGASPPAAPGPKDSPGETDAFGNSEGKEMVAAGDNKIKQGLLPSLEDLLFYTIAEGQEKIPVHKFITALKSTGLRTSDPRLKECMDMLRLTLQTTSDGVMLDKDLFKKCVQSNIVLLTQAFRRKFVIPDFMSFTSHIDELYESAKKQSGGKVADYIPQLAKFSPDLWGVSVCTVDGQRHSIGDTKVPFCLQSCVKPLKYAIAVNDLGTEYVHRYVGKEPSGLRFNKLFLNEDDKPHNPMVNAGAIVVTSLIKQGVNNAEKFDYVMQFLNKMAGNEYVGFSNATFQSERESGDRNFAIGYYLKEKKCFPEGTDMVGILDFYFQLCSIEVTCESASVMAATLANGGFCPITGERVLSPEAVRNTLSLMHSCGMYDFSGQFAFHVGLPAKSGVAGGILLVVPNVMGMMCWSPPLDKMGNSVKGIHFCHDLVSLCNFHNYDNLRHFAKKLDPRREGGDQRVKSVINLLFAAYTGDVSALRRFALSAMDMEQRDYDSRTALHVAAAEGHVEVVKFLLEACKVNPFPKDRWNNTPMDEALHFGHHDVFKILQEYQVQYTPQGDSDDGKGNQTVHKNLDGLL
Protocol: Assay 3: Determination of Glutaminase Enzyme Activity Using Glutaminase
Enzyme from Mice Brain/Kidney
Step 1: Preparation of Tissue Homogenates: Male Balb/c mice were administered 0.28 M ammonium chloride in drinking water for 7 days. The animals were sacrificed and brain/kidney organs collected on dry ice. […] The tissue was homogenized and supernatants were stored at −80° C. until the enzyme assay was performed.
Aim: Compounds were assessed for their ability to inhibit the enzymatic activity of L-glutaminase present in mice brain/kidney homogenate.
Protocol: The assay was performed using a colorimetric method using Nessler's Reagent by quantifying the amount of ammonia formed as a by product during the enzymatic conversion of L-glutamine to glutamate. In the routine assay, 16 μl of tissue homogenate is added to 33 μl of Tris-Hcl phosphate buffer (pH 8) along with 1 μl of DMSO/test compound containing the desired final concentration and vortexed briefly. 50 μl of 20 mM L-glutamine Tris buffer is added to start the reaction and incubated for 15 minutes at 37° C. The ammonia formed is detected by adding 20 μl of reaction mixture to cold water in a 96 well plate followed by 20 μl of Nessler's reagent. The colour developed is measured at 450 nm. Data Analysis: Activity of the test compound is reported as % inhibition and the data is analyzed using Graphpad Prism (Graphpad software; San Diego Calif.) for IC50 determination.

cancer cell lines = assay: In vitro cell proliferation assay in cancer cell lines (MTT dye reduction, 72 h); format: cell-based; details: cancer cell line not named, 10% FBS media
Protocol: Assay 4: In Vitro Cell Proliferation Assay in Cancer Cell Lines
Growth inhibition assays were carried out using 10% FBS supplemented media. Cells were seeded at a concentration of 5000-20,000 cells/well in a 96-well plate. Test compounds at a concentration range from 0.01 to 10000 nM were added after 24 hours. Growth was assessed using the 3-[4,5-dimethylthiazol-2-yl]-2,5-diphenyltetrazolium bromide (MIT) dye reduction test at 0 h (prior to the addition of the test compound) and 72 hours after the addition of test compound. Absorbance was read on a Fluostar Optima (BMG Labtech, Germany) at a wave length of 450 nm. Data were analysed using GraphPad Prism and percent inhibition due to the test compound compared to the control was calculated accordingly.

## CCC(Cl)C(=O)Nc1nnc(CCCCc2ccc(NC(=O)Cc3cccc(OC(F)(F)F)c3)nc2)s1 (stereo not shown) [Example-24, 2-Chloro-N-(5-(4-(6-(2-(3-(trifluoromethoxy)phenyl)acetamido)pyridin-3-yl)butyl)-1,3,4-thiadiazol-2-yl)butanamide]
[1]; 0.1 μM, mice brain homogenate
  inhibition at 0.1 µM: < 25%
[1]; 1 μM, mice brain homogenate
  inhibition at 1 µM: < 25%
Cancer cell lines
  GI50: 400 to 1000 nM

## O=C(Cc1cccc(OC(F)(F)F)c1)Nc1ccc(CC2CC(c3nnc(NC(=O)Cc4ccccn4)s3)C2)cn1 (stereo not shown) [Example-107, 2-(Pyridin-2-yl)-N-(5-(3-((6-(2-(3-(trifluoromethoxy)phenyl)acetamido)pyridin-3-yl)methyl)cyclobutyl)-1,3,4-thiadiazol-2-yl)acetamide]
[1]; 0.1 μM, mice brain homogenate
  inhibition at 0.1 µM: 25 to 50%
[1]; 1 μM, mice brain homogenate
  inhibition at 1 µM: 50 to 75%
Cancer cell lines
  GI50: 400 to 1000 nM

## O=C(Cc1cccnc1)Nc1ccc(CCCCc2nnc(NC(=O)Cc3cccc(Cl)c3)s2)cn1 [Example-18, 2-(3-Chlorophenyl)-N-(5-(4-(6-(2-(pyridin-3-yl)acetamido)pyridin-3-yl)butyl)-1,3,4-thiadiazol-2-yl)acetamide]
[1]; 0.1 μM, mice brain homogenate
  inhibition at 0.1 µM: 50 to 75%
[1]; 1 μM, mice brain homogenate
  inhibition at 1 µM: 75 to 100%
Cancer cell lines
  GI50: 100 to 400 nM

## O=C(Cc1cccc(OC(F)(F)F)c1)Nc1ccc(CCCCc2nnc(NC(=O)Cc3ccccn3)s2)c(F)n1 [Example-29, N-(6-fluoro-5-(4-(5-(2-(pyridin-2-yl)acetamido)-1,3,4-thiadiazol-2-yl)butyl)pyridin-2-yl)-2-(3-(trifluoromethoxy)phenyl)acetamide]
[1]; 0.1 μM, mice brain homogenate
  inhibition at 0.1 µM: 50 to 75%
[1]; 1 μM, mice brain homogenate
  inhibition at 1 µM: 75 to 100%
Cancer cell lines
  GI50: 1000 to 5000 nM

## O=C(Cc1cccc(OC(F)(F)F)c1)Nc1ccc(CC2CC(c3nnc(NC(=O)Cc4cccnc4)s3)C2)cn1 (stereo not shown) [Example-108, 2-(Pyridin-3-yl)-N-(5-(3-((6-(2-(3-(trifluoromethoxy)phenyl)acetamido)pyridin-3-yl)methyl)cyclobutyl)-1,3,4-thiadiazol-2-yl)acetamide]
[1]; 0.1 μM, mice brain homogenate
  inhibition at 0.1 µM: 75 to 100%
[1]; 1 μM, mice brain homogenate
  inhibition at 1 µM: 75 to 100%
Cancer cell lines
  GI50: 100 to 400 nM

## O=C(Cc1ccccn1)Nc1ccc(CCCCc2nnc(NC(=O)Cc3cccc(OC(F)(F)F)c3)s2)c(F)n1 [Example-32, N-(6-fluoro-5-(4-(5-(2-(3-(trifluoromethoxy)phenyl)acetamido)-1,3,4-thiadiazol-2-yl)butyl)pyridin-2-yl)-2-(pyridin-2-yl)acetamide]
[1]; 0.1 μM, mice brain homogenate
  inhibition at 0.1 µM: < 25%
[1]; 1 μM, mice brain homogenate
  inhibition at 1 µM: 75 to 100%
Cancer cell lines
  GI50: 400 to 1000 nM

## CS(=O)(=O)Nc1ccc(CC(=O)Nc2nnc(CCCCc3ccc(NC(=O)Cc4cccc(OC(F)(F)F)c4)nc3)s2)cc1 [Example-31, 2-(4-(Methylsulfonamido)phenyl)-N-(5-(4-(6-(2-(3-(trifluoromethoxy)phenyl)acetamido)pyridin-3-yl)butyl)-1,3,4-thiadiazol-2-yl)acetamide]
[1]; 0.1 μM, mice brain homogenate
  inhibition at 0.1 µM: 50 to 75%
[1]; 1 μM, mice brain homogenate
  inhibition at 1 µM: 75 to 100%
Cancer cell lines
  GI50: 5000 to 10000 nM

## O=C(Cc1cccc(OC(F)(F)F)c1)Nc1ccc(CCCCc2nnc(NC(=O)Cc3cnccn3)s2)cn1 [Example-28, 2-(Pyrazin-2-yl)-N-(5-(4-(6-(2-(3-(trifluoromethoxy)phenyl)acetamido)pyridin-3-yl)butyl)-1,3,4-thiadiazol-2-yl)acetamide]
[1]; 0.1 μM, mice brain homogenate
  inhibition at 0.1 µM: 75 to 100%
[1]; 1 μM, mice brain homogenate
  inhibition at 1 µM: 50 to 75%
Cancer cell lines
  GI50: 1000 to 5000 nM

## N#Cc1cccc(CC(=O)Nc2nnc(CCCCc3ccc(NC(=O)Cc4cccc(OC(F)(F)F)c4)nc3)s2)c1 [Example-17, 2-(3-Cyanophenyl)-N-(5-(4-(6-(2-(3-(trifluoromethoxy)phenyl)acetamido)pyridin-3-yl)butyl)-1,3,4-thiadiazol-2-yl)acetamide]
[1]; 0.1 μM, mice brain homogenate
  inhibition at 0.1 µM: 25 to 50%
[1]; 1 μM, mice brain homogenate
  inhibition at 1 µM: 75 to 100%
Cancer cell lines
  GI50: 100 to 400 nM

## O=C(Cc1cccc(OC(F)(F)F)c1)Nc1ccc(CCCCc2nnc(NC(=O)Cc3cccnc3)s2)c(F)n1 [Example-21, N-(6-Fluoro-5-(4-(5-(2-(pyridin-3-yl)acetamido)-1,3,4-thiadiazol-2-yl)butyl)pyridin-2-yl)-2-(3-(trifluoromethoxy)phenyl)acetamide]
[1]; 0.1 μM, mice brain homogenate
  inhibition at 0.1 µM: 50 to 75%
[1]; 1 μM, mice brain homogenate
  inhibition at 1 µM: 75 to 100%
Cancer cell lines
  GI50: < 100 nM

## CS(=O)(=O)Nc1cccc(CC(=O)Nc2nnc(CCCCc3ccc(NC(=O)Cc4cccc(OC(F)(F)F)c4)nc3)s2)c1 [Example-30, 2-(3-(Methylsulfonamido)phenyl)-N-(5-(4-(6-(2-(3-(trifluoromethoxy)phenyl)acetamido)pyridin-3-yl)butyl)-1,3,4-thiadiazol-2-yl)acetamide]
[1]; 0.1 μM, mice brain homogenate
  inhibition at 0.1 µM: 50 to 75%
[1]; 1 μM, mice brain homogenate
  inhibition at 1 µM: 75 to 100%
Cancer cell lines
  GI50: 1000 to 5000 nM

## O=C(Cc1cccnc1)Nc1ccc(CCCCc2nnc(NC(=O)Cc3cccc(F)c3)s2)cn1 [Example-20, 2-(3-Fluorophenyl)-N-(5-(4-(6-(2-(pyridin-3-yl)acetamido)pyridin-3-yl)butyl)-1,3,4-thiadiazol-2-yl)acetamide]
[1]; 0.1 μM, mice brain homogenate
  inhibition at 0.1 µM: 75 to 100%
[1]; 1 μM, mice brain homogenate
  inhibition at 1 µM: 75 to 100%
Cancer cell lines
  GI50: 400 to 1000 nM

## O=C(Cc1cccc(OC(F)(F)F)c1)Nc1ccc(CCCCc2nnc(NC(=O)Cc3ccccn3)s2)cn1 [Example 3, 2-(Pyridin-2-yl)-N-(5-(4-(6-(2-(3-(trifluoromethoxy)phenyl)acetamido)pyridin-3-yl)butyl)-1,3,4-thiadiazol-2-yl)acetamide]
[1]
  inhibition at 0.1 µM: 50 to 75%
  inhibition at 1 µM: 75 to 100%
Cancer cell lines
  GI50: 400 to 1000 nM

## O=C(Cc1ccccc1)Nc1nnc(C2CCC(c3nnc(NC(=O)Cc4ccccc4)s3)CC2)s1 (stereo not shown) [Example-101, N,N′-(5, 5′-(cyclohexane-1,4-diyl)bis(1,3,4-thiadiazole-5,2-diyl))bis(2-phenylacetamide)]
other
  melting point: 281 to 283 °C

## O=C(Cc1cccnc1)Nc1ccc(CCCCc2nnc(NC(=O)Cc3cccc(OC(F)(F)F)c3)s2)cn1 [Example-11, 2-(Pyridin-3-yl)-N-(5-(4-(5-(2-(3-(trifluoromethoxy)phenyl)acetamido)-1,3,4-thiadiazol-2-yl)butyl)pyridin-2-yl)acetamide]
[1]; 0.1 μM, mice brain homogenate
  inhibition at 0.1 µM: 75 to 100%
[1]; 1 μM, mice brain homogenate
  inhibition at 1 µM: 75 to 100%
Cancer cell lines
  GI50: < 100 nM

## O=C(Cc1cccnc1)Nc1ccc(CC2CC(c3nnc(NC(=O)Cc4cccc(OC(F)(F)F)c4)s3)C2)cn1 (stereo not shown) [Example-109, 2-(Pyridin-3-yl)-N-(5-((3-(5-(2-(3-(trifluoromethoxy)phenyl)acetamido)-1,3,4-thiadiazol-2-yl)cyclobutyl)methyl)pyridin-2-yl)acetamide]
[1]; 0.1 μM, mice brain homogenate
  inhibition at 0.1 µM: 50 to 75%
[1]; 1 μM, mice brain homogenate
  inhibition at 1 µM: 75 to 100%
Cancer cell lines
  GI50: < 100 nM

## O=C(Cc1ccccn1)Nc1ccc(CCCCc2nnc(NC(=O)Cc3cccnc3)s2)c(F)n1 [Example-38, N-(6-fluoro-5-(4-(5-(2-(pyridin-3-yl)acetamido)-1,3,4-thiadiazol-2-yl)butyl)pyridin-2-yl)-2-(pyridin-2-yl)acetamide]
[1]; 0.1 μM, mice brain homogenate
  inhibition at 0.1 µM: 25 to 50%
[1]; 1 μM, mice brain homogenate
  inhibition at 1 µM: 75 to 100%
Cancer cell lines
  GI50: < 100 nM

## O=C(Cc1cccc(OC(F)(F)F)c1)Nc1ccc(CCCCc2nnc(NC(=O)Cc3cccc(OC(F)(F)F)c3)s2)cn1 [Example-16, 2-(3-(Trifluoromethoxy)phenyl)-N-(5-(4-(5-(2-(3-(trifluoromethoxy)phenyl)acetamido)-1,3,4-thiadiazol-2-yl)butyl)pyridin-2-yl)acetamide]
[1]; 0.1 μM, mice brain homogenate
  inhibition at 0.1 µM: 25 to 50%
[1]; 1 μM, mice brain homogenate
  inhibition at 1 µM: 50 to 75%
Cancer cell lines
  GI50: < 100 nM

— patent publication US20160297761A1, “NOVEL INHIBITORS OF GLUTAMINASE” (RHIZEN PHARMACEUTICALS SA, priority 2014, published 2016)
